The results in this text go back to patent publication US8188102B2, “Amide derivative for inhibiting the growth of cancer cells” (Hanmi Holdings Co., Ltd., priority 2007, dated 2012).

Some results are limits rather than exact numbers.

One test addresses EGFR T790M kinase (Homo sapiens, UniProt P00533, T790M). The experiment in a line: Inhibition of EGFR mutant enzyme (T790M). The settings on record: read-out: IC50 (nM) T790M; EGFR T790M kinase.
Test [1] concerns SK-Br3 breast cancer cell line. Kind of test: Cancer cell growth inhibition, SK-Br3 (SRB). The settings on record: Homo sapiens, SK-BR-3, 72 h, read-out: ID50 (nM) SK-Br3.
The test system of test [2] is H1975 lung cancer cell line. The experiment in a line: Cancer cell growth inhibition, H1975 (celltiter). The settings on record: Homo sapiens, NCI-H1975, 48 h, read-out: IC50 (nM) H1975.
Description: The medium was removed from each well of the 96-well plate.
In case of H1975, the cells were diluted with a culture medium to a concentration of 50,000 cells/ml. 100 μl of the diluted cell solution was added to each well of a 96-well plate, and, after 1 day, was washed with a mixture of RPMI, 0.1% FBS and 1% penicillin-streptomycin (PS), followed by replacement of the medium. The plate was allowed to be kept overnight and be treated to various concentrations under the same medium condition for 48 hrs. Similarly to an MTT assay, 15 μl of a celltiter one shot solution (Promega) was added to each well, which was incubated for 2 to 3 hrs, and, then, the absorbance at 490 nm was determined.
Test [3] has as its system A431 skin cancer cell line. Kind of test: Cancer cell growth inhibition, A431 (SRB). The settings on record: Homo sapiens, A-431, 72 h, read-out: ID50 (nM) A431.
Test [4] has as its system SW-620 colon/rectal cancer cell line. The experiment in a line: Cancer cell growth inhibition, SW-620 (SRB). The settings on record: Homo sapiens, SW-620, 72 h, read-out: IC50 (nM) SW-620.

Chain of EGFR T790M kinase (P00533 25-1210 T790M): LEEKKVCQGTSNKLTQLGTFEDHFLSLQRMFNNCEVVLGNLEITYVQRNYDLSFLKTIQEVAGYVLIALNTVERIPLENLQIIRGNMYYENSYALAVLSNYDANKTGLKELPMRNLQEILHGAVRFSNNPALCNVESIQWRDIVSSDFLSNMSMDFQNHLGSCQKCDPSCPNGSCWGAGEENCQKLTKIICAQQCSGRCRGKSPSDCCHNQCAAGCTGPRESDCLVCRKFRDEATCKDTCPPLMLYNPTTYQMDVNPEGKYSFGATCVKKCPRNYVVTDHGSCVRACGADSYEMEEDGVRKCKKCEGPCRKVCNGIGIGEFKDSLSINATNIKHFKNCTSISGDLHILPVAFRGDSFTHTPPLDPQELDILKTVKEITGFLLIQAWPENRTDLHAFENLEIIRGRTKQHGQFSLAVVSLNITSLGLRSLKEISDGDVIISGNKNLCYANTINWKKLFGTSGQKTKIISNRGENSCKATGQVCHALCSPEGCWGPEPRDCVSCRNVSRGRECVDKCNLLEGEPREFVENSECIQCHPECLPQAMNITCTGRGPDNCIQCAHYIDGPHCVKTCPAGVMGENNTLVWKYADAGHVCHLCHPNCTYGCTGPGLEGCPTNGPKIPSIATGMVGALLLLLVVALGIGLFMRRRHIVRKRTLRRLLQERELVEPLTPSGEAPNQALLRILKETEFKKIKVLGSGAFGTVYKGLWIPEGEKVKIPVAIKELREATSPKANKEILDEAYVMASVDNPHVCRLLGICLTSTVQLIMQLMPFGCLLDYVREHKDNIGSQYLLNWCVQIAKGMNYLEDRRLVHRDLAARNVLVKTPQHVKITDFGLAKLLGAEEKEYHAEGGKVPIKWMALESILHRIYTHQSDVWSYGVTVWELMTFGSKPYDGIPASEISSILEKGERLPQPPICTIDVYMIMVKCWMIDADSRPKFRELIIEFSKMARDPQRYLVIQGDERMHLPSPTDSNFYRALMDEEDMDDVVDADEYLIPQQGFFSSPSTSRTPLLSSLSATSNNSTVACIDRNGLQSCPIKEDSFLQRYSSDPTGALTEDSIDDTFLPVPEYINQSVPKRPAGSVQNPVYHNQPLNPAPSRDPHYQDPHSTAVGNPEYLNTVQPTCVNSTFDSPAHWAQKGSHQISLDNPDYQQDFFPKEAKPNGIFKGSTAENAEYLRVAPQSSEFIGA

As for `C=CC(=O)N1CCC(Oc2cc3c(Nc4ccc(Br)c(C)c4)ncnc3cc2OC)CC1` [Example 39, 1-(4-(4-(4-bromo-3-methylphenylamino)-7-methoxyquinazolin-6-yloxy)piperidin-1-yl)pro-2-pen-1-one], the IC50 was 7.6 nM at EGFR T790M kinase, 9 nM in test [1], 48 nM in test [2] and 6 nM in test [3].

For the compound `C=CC(=O)N1CCC(Oc2cc3c(Nc4cccc(C)c4)ncnc3cc2OC)CC1` [Example 41, 1-(4-(4-(m-toluidino)-7-methoxyquinazolin-6-yloxy)piperidin-1-yl)pro-2-pen-1-one], the IC50 was 9.3 nM at EGFR T790M kinase, 2 nM in test [1], 236 nM in test [2] and 1 nM in test [3].

As to `C=CC(=O)N1CCC(Oc2cc3c(Nc4cccc(Br)c4)ncnc3cc2OC)CC1` [Example 42, 1-(4-(4-(3-bromophenylamino)-7-methoxyquinazolin-6-yloxy)piperidin-1-yl)pro-2-pen-1-one], the IC50 at EGFR T790M kinase was 7.1 nM; in test [1], 0.7 nM; in test [2], 96 nM; in test [3], 1 nM.

With `C=CC(=O)N1CCC(Oc2cc3c(Nc4ccc(F)c(Cl)c4)ncnc3cc2OC)CC1` [Example 57, 1-(4-(4-(3-chloro-4-fluorophenylamino)-7-methoxyquinazolin-6-yloxy)piperidin-1-yl)pro-2-pen-1-one], the IC50 is 2 nM in test [1], over 5000 nM in test [4], 16 nM in test [2] and 17 nM in test [3].

On to `C=CC(=O)N1CCC(Oc2cc3c(Nc4cccc(C(F)(F)F)c4)ncnc3cc2OC)CC1` [Example 58, 1-(4-(7-methoxy-4-(3-(trifluoromethyl)phenylamino)quinazolin-6-yloxy)piperidin-1-yl)pro-2-pen-1-one], for which the IC50 at EGFR T790M kinase was 16.2 nM; in test [1], 20 nM; in test [4], over 5000 nM; in test [3], 58 nM.

In the case of `C=CC(=O)N1CCC(Oc2cc3c(Nc4cccc(C=C)c4)ncnc3cc2OC)CC1` [Example 73, 1-(4-(7-methoxy-4-(3-vinylphenylamino)quinazolin-6-yloxy)piperidin-1-yl)pro-2-pen-1-one], the IC50 on EGFR T790M kinase is 3 nM; in test [1], 1.2 nM; in test [4], over 5000 nM; in test [2] it was 27 nM; in test [3], 1.9 nM.

Consider `C=C(CN(C)C)C(=O)N1CC(Oc2cc3c(Nc4ccc(F)c(Cl)c4F)ncnc3cc2OC)C1` [Example 104, 1-(3-(4-(3-chloro-2,4-difluorophenylamino)-7-methoxyquinazolin-6-yloxy)azetidin-1-yl)-2-((dimethylamino)methyl)prop-2-en-1-one], for which the IC50 on EGFR T790M kinase was 2 nM; in test [1] it was 1.5 nM; in test [4], over 5000 nM; in test [2], 11 nM; in test [3] it was 41 nM.

In the case of `C=CC(=O)N1CC[C@H](Oc2cc3c(Nc4ccc(F)c(Cl)c4F)ncnc3cc2OC)C[C@H]1C(=O)NCCS(C)(=O)=O` [Example 129, (2S,4S)-1-acryloyl-4-(4-(3-chloro-2,4-difluorophenylamino)-7-methoxyquinazolin-6-yloxy)-N-(2-(methylsulfonyl)ethyl)piperidin-2-carboxamide], the IC50 at EGFR T790M kinase came out at 3 nM; in test [1] it was 0.6 nM; in test [2], 50.4 nM; in test [3], 2.2 nM.

As to `C=CC(=O)N1CC[C@@H](Oc2cc3c(Nc4ccc(Cl)c(Cl)c4F)ncnc3cc2OC)C[C@@H]1C(N)=O` [Example 139, (2R,4R)-1-acryloyl-4-(4-(3,4-dichloro-2-fluorophenylamino)-7-methoxyquinazolin-6-yloxy)piperidin-2-carboxamide], the IC50 in test [1] was 1.1 nM; in test [4] it was over 5000 nM; in test [2], 1.1 nM; in test [3], 0.8 nM.
